{"source": "patent US20080063599A1", "about": "“Compounds Which Can Be Used To Diagnose And Monitor Diseases Associated With The Formation Of Amyloid Protein Fibrils” (priority 2002, published 2008)", "test_system": "amyloid plaques in mice brains", "assay": "MicroPET images of transgenic mice", "type": "in vivo", "conditions": "Tg2576 mice; dynamic microPET, total acquisition time 55-77 min", "protocol": "All the animal experiments were performed according to the established animal protocol. The transgenic mice (Tg2576) were anaesthetised via intravenous injection with a 40 uL solution of ketamine and xylazine (4:1) before the injection of the tracer radiolabelled with ^18F: 5-[^18F]-fluoro-8-hydroxy-7-iodoquinoline. The mice were placed in supine position and scanned using microPET. A dynamic microPET study was performed using 15 planes and 15 to 16 frames (dynamic sequence: 6×30 s, 4×1 min, 2×5 min, 2×10 min, and 1-2×20 min) for a total acquisition time of 55-77 min. Images were reconstructed using the appropriate algorithms (Filter-back projection algorithm) and a cut-off frequency of 0.5. Images were reconstructed by means of a filtered iteration resulting in an image resolution of 1.8 mm and a volumetric resolution of about 6 mm^3. Transverse planes were reoriented to obtain the coronal and axial sections of the mice brains. Regional uptake is expressed in activity per gram of tissue."}
{"smiles": "Oc1c(I)cc([18F])c2cccnc12", "note": "[5-[^18F]-fluoro-8-hydroxy-7-iodoquinoline]", "values": [{"measurement": "detection of amyloid plaques in microPET images", "value": "adequate detection of the amyloid plaques"}]}
